Our source for the LC retention time values is the RepoRT retention time repository.

The series is described as follows: HILIC, Waters ACQUITY UPLC BEH Amide, 100 × 2.1 mm, 1.7 µm; A: water + 0.125% formic acid + 10 mM ammonium formate; B: 5% water + 95% acetonitrile + 0.125% formic acid + 10 mM ammonium formate; gradient (min/%B) 0/100 2/100 7.7/70 9.5/40 10.25/30 12.75/100 17/100. The conditions noted are these: stereoisomer not certain.
Regarding `Nc1ncnc2c1ncn2C1OC(CO)C(OP(=O)(O)O)C1O` (stereo unspecified) [Adenosine-3-monophosphate], the LC retention time came out at 8.88 min. Regarding `Nc1ncnc2c1ncn2C1OC(CO)C(O)C1O` (stereo unspecified) [Adenosine], the LC retention time is 4.77 min. For `CC12CC(=O)C3C(CCC4=CC(=O)CCC43C)C1CCC2=O` (stereo unspecified) [Adrenosterone], the LC retention time came to 1.1 min. Under `NCCCCN=C(N)N` [Agmatine] stands 8.92 min; under `CC(N)C(=O)NC(C)C(=O)O` (stereo unspecified) [Ala-Ala], 8.41 min. Under `CC(N)C(=O)NC(CCC(N)=O)C(=O)O` (stereo unspecified) [Ala-Gln] stands 9.11 min. Then `CCC(C)C(NC(=O)C(C)N)C(=O)O` (stereo unspecified) [Ala-Ile], with 7.83 min. As to `CC(C)CC(NC(=O)C(C)N)C(=O)O` (stereo unspecified) [Ala-Leu], the LC retention time was 7.6 min. Then `CC(N)C(=O)NC(C(=O)O)C(C)C` (stereo unspecified) [Ala-Val], with 7.66 min; and `CC(N)C(=O)O` (stereo unspecified) [Alanine], with 8.05 min. Under `CCCSc1ccc2nc(NC(=O)OC)[nH]c2c1` [Albendazole] stands 1.22 min; under `CC(C)(C)NCC(O)c1ccc(O)c(CO)c1` (stereo unspecified) [Albuterol], 5.55 min; under `COc1cc2nc(N(C)CCCNC(=O)C3CCCO3)nc(N)c2cc1OC` (stereo unspecified) [Alfuzosin], 4.29 min.

Turning to `NC(=O)NC(NC(N)=O)C(=O)O` [Allantoic acid], the LC retention time was found to be 8.56 min. Under `Cc1[nH]cnc1CN1CCc2c(c3ccccc3n2C)C1=O` [Alosetron] stands 4.19 min.

`Cc1nnc2n1-c1ccc(Cl)cc1C(c1ccccc1)=NC2` [Alprazolam]: the LC retention time is 1.34 min.

With `O=C(c1ccc(F)cc1)C1CCN(CCn2c(=S)[nH]c3ccccc3c2=O)CC1` [Altanserin], the LC retention time amounted to 2.64 min. Regarding `NC12CC3CC(CC(C3)C1)C2` [Amantadine], the LC retention time turned out to be 4.88 min. With `NC(N)=NC(=O)c1nc(Cl)c(N)nc1N` [Amiloride], the LC retention time was 5.52 min. Under `CCCCc1oc2ccccc2c1C(=O)c1cc(I)c(OCCN(CC)CC)c(I)c1` [Amiodarone] stands 1.87 min. Under `CCN1CCCC1CNC(=O)c1cc(S(=O)(=O)CC)c(N)cc1OC` (stereo unspecified) [Amisulpride] stands 2.76 min; under `CC(C)c1ccc2oc3nc(N)c(C(=O)O)cc3c(=O)c2c1` [Amlexanox], 1.81 min; under `CCOC(=O)C1=C(COCCN)NC(C)=C(C(=O)OC)C1c1ccccc1Cl` (stereo unspecified) [Amlodipine], 4.24 min. On to `CC(N)Cc1ccccc1` (stereo unspecified) [Amphetamine], for which the LC retention time was determined as 4.6 min. Under `CCOC(=O)OC(C)OC1=C(C(=O)Nc2ccccn2)N(C)S(=O)(=O)c2ccccc21` (stereo unspecified) [Ampiroxicam] stands 0.95 min. Then `O=C1CN2Cc3c(ccc(Cl)c3Cl)N=C2N1` [Anagrelide], with 1.82 min. Under `CC(C)(C#N)c1cc(Cn2cncn2)cc(C(C)(C)C#N)c1` [Anastrozole] stands 0.98 min; under `CC12CCC3C(CCC4CC(O)CCC43C)C1CCC2O` (stereo unspecified) [Androstane-3,17-diol], 0.96 min; under `CC12CCC3C(CCC4=CC(=O)CCC43C)C1CCC2=O` (stereo unspecified) [Androstenedione], 1.09 min.

As for `CC12CCC3C(CCC4CC(O)CCC43C)C1CCC2=O` (stereo unspecified) [Androsterone], the LC retention time was 4.62 min.

Turning to `Cn1cncc1CC(NC(=O)CCN)C(=O)O` (stereo unspecified) [Anserine], the LC retention time was found to be 9.49 min. Regarding `CCCCCC=CCC=CCC=CCC=CCCCC(=O)NCCc1ccc(O)c(O)c1` [Arachidonyl dopamine], the LC retention time was found to be 1.14 min. Then `CC(NC(=O)C(N)CCCN=C(N)N)C(=O)O` (stereo unspecified) [Arg-Ala], with 9.66 min; and `NC(N)=NCCCC(N)C(=O)NCC(=O)O` (stereo unspecified) [Arg-Gly], with 9.85 min. Under `NC(N)=NCCCC(N)C(=O)N1CCCC1C(=O)O` (stereo unspecified) [Arg-Pro] stands 9.51 min; under `NC(N)=NCCCC(N)C(=O)NC(CO)C(=O)O` (stereo unspecified) [Arg-Ser], 9.9 min; under `CC(C)C(NC(=O)C(N)CCCN=C(N)N)C(=O)O` (stereo unspecified) [Arg-Val], 9.3 min. `CC1CNc2c(cccc2S(=O)(=O)NC(CCCN=C(N)N)C(=O)N2CCC(C)CC2C(=O)O)C1` (stereo unspecified) [Argatroban]: the LC retention time was 5.45 min.

Regarding `NC(N)=NCCCC(N)C(=O)O` (stereo unspecified) [Arginine], the LC retention time came out at 9.53 min. Under `O=C1CCc2ccc(OCCCCN3CCN(c4cccc(Cl)c4Cl)CC3)cc2N1` [Aripiprazole] stands 3.14 min. On to `O=C1OC(C(O)CO)C(O)=C1O` (stereo unspecified) [Ascorbic acid], for which the LC retention time is 1.44 min. For `NC(CC(=O)O)C(=O)NC(CCC(=O)O)C(=O)O` (stereo unspecified) [Asp-Glu], the LC retention time worked out at 9.47 min. `NC(CC(=O)O)C(=O)NC(Cc1ccccc1)C(=O)O` (stereo unspecified) [Asp-Phe]: the LC retention time was found to be 8.14 min. For the molecule `NC(=O)CC(N)C(=O)O` (stereo unspecified) [Asparagine], the LC retention time was found to be 8.81 min.

In the case of `NC(CC(=O)O)C(=O)O` (stereo unspecified) [Aspartic acid], the LC retention time was found to be 9.33 min. Regarding `CNCCC(Oc1ccccc1C)c1ccccc1` (stereo unspecified) [Atomoxetine], the LC retention time turned out to be 2.42 min.

As for `CN1C2CCC1CC(OC(=O)C(CO)c1ccccc1)C2` (stereo unspecified) [Atropine], the LC retention time came out at 4.32 min.

As to `CN1C(=O)COc2c(C(=O)NC3CN4CCC3CC4)cc(Cl)cc21` (stereo unspecified) [Azasetron], the LC retention time amounted to 4.66 min. Then `CN1CCCC(n2nc(Cc3ccc(Cl)cc3)c3ccccc3c2=O)CC1` (stereo unspecified) [Azelastine], with 2.95 min; and `O=C(O)CCNC(=O)c1ccc(N=Nc2ccc(O)c(C(=O)O)c2)cc1` [Balsalazide], with 4.85 min. As for `CC1CC2C3CCC4=CC(=O)C=CC4(C)C3(Cl)C(O)CC2(C)C1(O)C(=O)CO` (stereo unspecified) [Beclomethasone], the LC retention time came out at 1.26 min. For the molecule `CCN(CC)CCOC(=O)C(O)(c1ccccc1)c1ccccc1` [Benactyzine], the LC retention time was 2.16 min. Under `CCOC(=O)C(CCc1ccccc1)NC1CCc2ccccc2N(CC(=O)O)C1=O` (stereo unspecified) [Benazepril] stands 1.33 min. Under `COC(=O)C1=C(C)NC(C)=C(C(=O)OC2CCCN(Cc3ccccc3)C2)C1c1cccc([N+](=O)[O-])c1` (stereo unspecified) [Benidipine] stands 1.46 min. Then `CC(COc1ccccc1Cc1ccccc1)N1CCCCC1` (stereo unspecified) [Benproperine], with 1.99 min; and `NC(=O)c1ccccc1` [Benzamide], with 1.27 min.

With `c1ccc2scnc2c1` [Benzothiazole], the LC retention time is 1.11 min. Take `CN1C2CCC1C(C(=O)O)C(OC(=O)c1ccccc1)C2` (stereo unspecified) [Benzoylecgonine]: the LC retention time came out at 3.63 min.

In the case of `CC(Cc1ccccc1)N(C)Cc1ccccc1` (stereo unspecified) [Benzphetamine], the LC retention time stood at 2.03 min. In the case of `CC(=O)OCc1ccccc1` [Benzylacetate], the LC retention time was 8.71 min.

For the molecule `CC(C)CC(NC(=O)C(O)C(N)Cc1ccccc1)C(=O)O` (stereo unspecified) [Bestatin], the LC retention time was determined as 5.98 min. Then `C[N+](C)(C)CC(=O)[O-]` [Betaine], with 7.24 min. Under `CC(C)NCC(O)COc1ccc(CCOCC2CC2)cc1` (stereo unspecified) [Betaxolol] stands 3.05 min. Then `CC(O)(CS(=O)(=O)c1ccc(F)cc1)C(=O)Nc1ccc(C#N)c(C(F)(F)F)c1` (stereo unspecified) [Bicalutamide], with 0.99 min; and `CNCCCCOc1ccccc1Cc1ccccc1` [Bifemelane], with 2.46 min; and `c1ccc(-c2ccc(C(c3ccccc3)n3ccnc3)cc2)cc1` (stereo unspecified) [Bifonazole], with 1.19 min. `O=C1CC2(CCCC2)CC(=O)N1CCNCC1COc2ccccc2O1` (stereo unspecified) [Binospirone]: the LC retention time came out at 1.8 min. As for `O=C(O)CCCCC1SCC2NC(=O)NC21` (stereo unspecified) [Biotin], the LC retention time came to 2.85 min.

Turning to `CC(C)NCC(O)COc1ccc(COCCOC(C)C)cc1` (stereo unspecified) [Bisoprolol], the LC retention time amounted to 3.47 min. Under `NC(=O)NC(N)=O` [Biuret] stands 2.73 min; under `O=C1CN=C(c2ccccn2)c2cc(Br)ccc2N1` [Bromazepam], 1.3 min; under `COc1cc2c(cc1OC)C13CCN4CC5=CCOC6CC(=O)N2C1C6C5CC43` (stereo unspecified) [Brucine], 4.57 min.

For `COc1cc(OC)c(C(=O)CCCN2CCCC2)c(OC)c1` [Buflomedil], the LC retention time was 2.34 min. Under `CC(NC(C)(C)C)C(=O)c1cccc(Cl)c1` (stereo unspecified) [Bupropion] stands 2.22 min; under `CCCC(=O)O` [Butanoic acid], 10.2 min; under `CCCC(=O)NCC(=O)O` [Butyrylglycine], 3.73 min.

In the case of `NCCCCCN` [Cadaverine], the LC retention time was found to be 8.99 min. Turning to `Cn1c(=O)c2c(ncn2C)n(C)c1=O` [Caffeine], the LC retention time turned out to be 1.21 min. Then `c1ccc2c(-c3nccs3)c[nH]c2c1` [Camalexin], with 1.05 min.

For `NC(N)=NOCCC(N)C(=O)O` (stereo unspecified) [Canavanine], the LC retention time worked out at 9.42 min. Then `COc1cc(CNC(=O)CCCCC=CC(C)C)ccc1O` [Capsaicin], with 1 min. Take `NC(=O)N1c2ccccc2C=Cc2ccccc21` [Carbamazepine]: the LC retention time was found to be 1.21 min.

On to `NC(CSCC(=O)O)C(=O)O` (stereo unspecified) [Carbocysteine], for which the LC retention time was determined as 9.04 min.

Take `CC(Cc1ccc(C(C)C(=O)O)cc1)C(=O)O` (stereo unspecified) [Carboxyibuprofen]: the LC retention time amounted to 1.11 min. Under `C[N+](C)(C)CC(O)CC(=O)[O-]` (stereo unspecified) [Carnitine] stands 7.83 min.

As to `NCCC(=O)NC(Cc1cnc[nH]1)C(=O)O` (stereo unspecified) [Carnosine], the LC retention time came to 9.54 min.
